Reference: patent US20160045487A1, “COMPOSITIONS AND METHODS FOR TREATING NEUROPATHY” (CHILDEREN'S MEDICAL CENTER CORPORATION, priority 2013, published 2016)

Key:
[1] = tested on: GFRα/RET receptor signaling; assay: Tyrosine hydroxylase promoter luciferase reporter assay in SH-SY5Y-THpGL3 cells; assay type: cell-based, human; settings: for effect in the TH-luciferase assay: XIB4035 alone
Source text: One goal of these studies was to determine if XIB4035 could be used for treating SFN in humans. Using the Neuro2A (N2A) murine neuroblastoma cell line, Tokugawa et al. (supra) reported XIB4035 as a competitive agonist for the GDNF receptor GFRα1 that activates the RET receptor. Since populations of DRG sensory neurons express different GFRα receptors, thus making them preferentially responsive to the particular ligands, it was important to determine if XIB4035 was specific to GFRα1 or could act on other family members. Since PSPN has no effect on peripheral sensory neurons, the GFRα1, GFRα2, and GFRα3 receptors were the focus of these studies. The SH-SY5Y, a human neuroblastoma cell line expressing mRNA for GFRα1, GFRα2, and GFRα3, was used to perform two cell-based assays; immunoblots measuring RET phosphorylation and a luciferase reporter assay using the tyrosine hydroxylase (TH) promoter. For the latter two paradigms were used, either overnight treatment immediately followed by luciferase activity measurements or 10 minute treatments followed by washout and overnight incubation prior to measurements. GDNF and ARTN induced robust TH-luciferase activity in a dose dependent manner (FIG. 3E). Because the responses to GDNF and ARTN were more robust, these two factors were chosen for further analysis.
The tyrosine hydroxylase promoter was cloned into the pGL3 basic vector (Promega, Madison, Wis., USA) at the Mlu I and Hind III sites, as previously described (Zwick, supra) (TH-pGL3). Briefly, a 2 Kb promoter region upstream from the transcription initiation site of the rat TH gene was cloned from genomic DNA using the primer sequences, […] and […]. SH-SY5Y cells were co-transfected with the TH-pGL3 and the pBabe-puromycin expression vectors at a molar ratio of 10:1. Cells were selected for stable puromycin resistance at a final concentration of 0.5 μg/ml of puromycin-dihydrochloride. Stable colonies were selected and tested for TH-directed luciferase response to GDNF family ligand stimulation. One stable clone, SH-SY5Y-THpGL3, with good signal-to-noise ratio was selected for use in the experiments.
SH-SY5Y-THpGL3 cells were maintained in DMEM/F12, 5% FBS, and 1% penicillin/streptomycin and plated on collagen coated plates (4 μg/ml). Neuro-2A cells were grown in MEM, 5% FBS, and 1% penicillin/streptomycin. BE(2)-C cells were grown in DMEM/F12 media containing 5% FBS and 1% penicillin/streptomycin. PC-12 cells were maintained in media containing RPMI-1640, 10% horse serum, 5% FBS, and 1% penicillin/streptomycin on collagen coated plates. For luciferase assays, cells were treated for either 10 minutes with washout or overnight with various molecules and assayed for firefly luciferase 16-24 hours post-treatment using the luciferase assay system (Promega, Madison, Wis., USA).

[2] = molecular target: T1, ErbB2/ErbB3 (Rattus norvegicus, UniProt P06494+Q62799); assay: NRG1-dependent activation of ErbB2/ErbB3 in L6 muscle cells; assay type: cell-based
T1 construct: endogenous in cells; host or cells: L6 muscle cells

[3] = molecular target: T2, GFRα2/RET (Homo sapiens, UniProt O00451+P07949); assay: NRTN/GFRα2-induced RET phosphorylation in B(E)2-C cells; assay type: cell-based; settings: 2 nM NRTN with 20 μM XIB4035, 10 minutes, then 60 minutes growth medium
T2 construct: B(E)2-C cells, which express only GFRα2 together with RET; endogenous in cells; host or cells: B(E)2-C / BE(2)-C cells
Experimental: B(E)2-C cells, which express GFRα2, were treated under different conditions (no treatment, 2 nM NRTN, or 2 nM NRTN with 20 μM XIB4035) for 10 minutes. Cells were either lysed immediately or after incubation in growth medium for an additional 60 minutes.
Since the original report argued that XIB4035 displaces GDNF binding to GFRα1 expressing cells (FIG. 2 in Tokugawa et al., Neurochem Int 42, 81-86 (2003).), potentially ARTN, on TH-luciferase activity and Ret phosphorylation. […] In this experiment, cells were treated with GDNF or ARTN with or without XIB4035 for 10 minutes and cell lysates were either collected immediately or treatment was washed out and replaced with growth media for 30, 60, or 120 minutes. […] Therefore, we tested cells expressing only one GFRα using either N2A cells (which express RET) transfected with GFRα1 or GFRα3 expression constructs, or B(E)2-C cells, which express only GFRα2 together with RET. […] The GFRα1 or GFRα3 transfected N2A cells were then treated with XIB4035 alone, the appropriate ligand for the expressed receptor alone, or XIB4035 and ligand in combination for 10 minutes, and collected lysates immediately after treatment or 60 minutes after washout. […] Similar results were obtained with GFRα2 and NRTN using B(E)2-C cells (FIG. 8). […]

T1 sequence (P06494 23-1257): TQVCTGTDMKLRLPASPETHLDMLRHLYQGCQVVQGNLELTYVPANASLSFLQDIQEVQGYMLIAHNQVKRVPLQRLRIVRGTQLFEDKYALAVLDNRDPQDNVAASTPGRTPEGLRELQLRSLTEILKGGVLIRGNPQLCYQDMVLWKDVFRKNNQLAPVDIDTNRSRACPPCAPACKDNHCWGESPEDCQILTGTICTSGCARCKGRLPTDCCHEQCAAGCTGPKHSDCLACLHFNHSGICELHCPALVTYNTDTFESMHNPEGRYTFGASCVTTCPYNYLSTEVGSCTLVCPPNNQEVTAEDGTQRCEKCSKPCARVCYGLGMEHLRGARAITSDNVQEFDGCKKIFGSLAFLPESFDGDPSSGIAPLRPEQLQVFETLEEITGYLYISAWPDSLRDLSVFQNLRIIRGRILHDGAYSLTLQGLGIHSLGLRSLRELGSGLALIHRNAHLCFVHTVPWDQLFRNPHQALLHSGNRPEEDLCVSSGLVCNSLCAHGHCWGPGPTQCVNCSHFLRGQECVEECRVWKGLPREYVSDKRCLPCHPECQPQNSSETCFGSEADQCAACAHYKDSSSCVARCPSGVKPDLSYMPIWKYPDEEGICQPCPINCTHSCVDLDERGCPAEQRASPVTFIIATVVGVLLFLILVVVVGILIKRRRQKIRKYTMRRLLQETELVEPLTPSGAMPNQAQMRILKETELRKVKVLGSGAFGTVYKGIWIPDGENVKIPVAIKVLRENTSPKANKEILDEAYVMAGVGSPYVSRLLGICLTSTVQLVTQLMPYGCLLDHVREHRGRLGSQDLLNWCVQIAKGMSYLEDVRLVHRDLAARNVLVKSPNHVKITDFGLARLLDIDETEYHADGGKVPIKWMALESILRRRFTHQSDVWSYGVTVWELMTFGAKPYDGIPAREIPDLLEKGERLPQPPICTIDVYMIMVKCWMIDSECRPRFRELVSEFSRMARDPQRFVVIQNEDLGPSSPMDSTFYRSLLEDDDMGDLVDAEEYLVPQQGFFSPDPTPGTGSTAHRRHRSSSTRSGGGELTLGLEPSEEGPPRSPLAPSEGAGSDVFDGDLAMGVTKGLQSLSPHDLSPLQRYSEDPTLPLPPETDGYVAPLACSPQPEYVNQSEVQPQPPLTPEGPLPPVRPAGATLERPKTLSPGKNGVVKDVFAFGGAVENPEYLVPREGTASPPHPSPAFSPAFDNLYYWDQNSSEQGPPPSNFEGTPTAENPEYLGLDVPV
T1 sequence (Q62799 20-1339): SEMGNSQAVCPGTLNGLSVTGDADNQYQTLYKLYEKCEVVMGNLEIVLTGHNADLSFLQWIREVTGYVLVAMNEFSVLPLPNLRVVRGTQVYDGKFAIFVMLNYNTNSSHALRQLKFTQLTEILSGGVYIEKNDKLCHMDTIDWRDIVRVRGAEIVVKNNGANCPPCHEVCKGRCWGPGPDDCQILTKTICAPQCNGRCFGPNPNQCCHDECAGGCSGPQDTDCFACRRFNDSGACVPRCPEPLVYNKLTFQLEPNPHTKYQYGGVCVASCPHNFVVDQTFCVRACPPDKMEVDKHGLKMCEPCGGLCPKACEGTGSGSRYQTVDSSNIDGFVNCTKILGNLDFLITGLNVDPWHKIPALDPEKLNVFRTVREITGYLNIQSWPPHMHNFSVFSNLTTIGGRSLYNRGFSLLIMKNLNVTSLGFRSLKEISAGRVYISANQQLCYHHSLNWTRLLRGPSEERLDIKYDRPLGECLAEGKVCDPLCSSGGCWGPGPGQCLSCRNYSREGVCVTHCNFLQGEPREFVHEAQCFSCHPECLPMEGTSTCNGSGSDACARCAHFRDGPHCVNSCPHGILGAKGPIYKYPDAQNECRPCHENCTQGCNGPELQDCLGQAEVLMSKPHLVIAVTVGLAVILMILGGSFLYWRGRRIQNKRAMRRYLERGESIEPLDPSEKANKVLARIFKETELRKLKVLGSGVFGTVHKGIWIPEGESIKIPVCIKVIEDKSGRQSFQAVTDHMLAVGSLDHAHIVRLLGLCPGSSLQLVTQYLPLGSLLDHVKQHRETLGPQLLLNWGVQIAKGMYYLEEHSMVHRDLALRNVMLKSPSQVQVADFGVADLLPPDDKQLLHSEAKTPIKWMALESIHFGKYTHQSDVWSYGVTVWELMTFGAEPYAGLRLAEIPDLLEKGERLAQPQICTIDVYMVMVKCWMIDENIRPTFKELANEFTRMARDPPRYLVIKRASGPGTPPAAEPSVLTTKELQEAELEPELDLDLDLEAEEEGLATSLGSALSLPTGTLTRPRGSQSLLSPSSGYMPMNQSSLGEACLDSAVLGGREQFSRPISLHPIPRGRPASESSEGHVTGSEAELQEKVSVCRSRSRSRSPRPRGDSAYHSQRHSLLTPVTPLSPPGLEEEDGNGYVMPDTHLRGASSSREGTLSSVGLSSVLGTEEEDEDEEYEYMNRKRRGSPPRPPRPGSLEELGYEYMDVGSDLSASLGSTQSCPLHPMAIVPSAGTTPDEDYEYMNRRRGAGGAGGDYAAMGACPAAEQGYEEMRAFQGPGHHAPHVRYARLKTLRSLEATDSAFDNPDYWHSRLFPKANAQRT
T2 sequence (O00451 22-444 limits assumed): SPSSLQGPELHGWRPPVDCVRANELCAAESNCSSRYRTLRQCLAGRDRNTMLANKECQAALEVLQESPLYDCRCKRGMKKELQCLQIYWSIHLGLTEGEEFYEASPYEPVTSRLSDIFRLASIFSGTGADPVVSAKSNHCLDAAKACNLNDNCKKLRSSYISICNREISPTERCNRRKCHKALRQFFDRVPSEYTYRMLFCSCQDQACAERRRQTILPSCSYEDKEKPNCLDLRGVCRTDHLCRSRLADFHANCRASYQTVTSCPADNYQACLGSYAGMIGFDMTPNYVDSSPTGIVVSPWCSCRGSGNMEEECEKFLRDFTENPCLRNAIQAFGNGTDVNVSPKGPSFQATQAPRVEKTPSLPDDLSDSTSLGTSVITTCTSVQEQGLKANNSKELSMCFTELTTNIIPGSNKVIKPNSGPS
T2 sequence (P07949 29-1114): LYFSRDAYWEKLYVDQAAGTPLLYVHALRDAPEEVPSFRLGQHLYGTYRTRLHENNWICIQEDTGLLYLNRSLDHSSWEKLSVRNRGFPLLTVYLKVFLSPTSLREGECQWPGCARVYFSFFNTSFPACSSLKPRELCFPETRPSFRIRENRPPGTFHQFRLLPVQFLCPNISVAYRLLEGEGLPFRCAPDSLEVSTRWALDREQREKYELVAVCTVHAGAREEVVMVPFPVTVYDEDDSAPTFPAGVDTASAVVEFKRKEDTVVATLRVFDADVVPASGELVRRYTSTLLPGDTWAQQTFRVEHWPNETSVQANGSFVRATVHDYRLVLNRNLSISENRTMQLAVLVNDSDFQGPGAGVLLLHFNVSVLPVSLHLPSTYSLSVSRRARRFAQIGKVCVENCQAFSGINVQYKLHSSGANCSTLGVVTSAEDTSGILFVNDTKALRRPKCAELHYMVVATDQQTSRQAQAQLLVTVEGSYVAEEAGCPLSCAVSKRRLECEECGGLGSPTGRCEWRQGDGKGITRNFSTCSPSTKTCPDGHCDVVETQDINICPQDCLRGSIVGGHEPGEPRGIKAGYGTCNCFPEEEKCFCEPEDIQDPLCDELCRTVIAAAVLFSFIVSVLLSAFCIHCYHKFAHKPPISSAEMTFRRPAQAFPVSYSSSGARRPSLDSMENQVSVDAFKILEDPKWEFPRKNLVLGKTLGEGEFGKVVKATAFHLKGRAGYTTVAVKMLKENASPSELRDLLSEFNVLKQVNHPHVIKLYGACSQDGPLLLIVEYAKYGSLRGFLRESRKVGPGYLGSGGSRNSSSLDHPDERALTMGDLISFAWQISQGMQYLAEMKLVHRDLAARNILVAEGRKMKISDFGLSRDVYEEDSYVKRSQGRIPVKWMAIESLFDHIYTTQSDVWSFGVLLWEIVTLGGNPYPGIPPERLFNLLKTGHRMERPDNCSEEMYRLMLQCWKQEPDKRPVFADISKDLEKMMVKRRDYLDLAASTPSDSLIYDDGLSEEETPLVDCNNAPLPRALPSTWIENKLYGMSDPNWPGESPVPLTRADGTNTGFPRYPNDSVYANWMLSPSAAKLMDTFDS

CCN(CC)CCCC(C)Nc1cc(/C=C/c2ccccc2Cl)nc2cc(Cl)ccc12 (stereo not drawn) [XIB4035, N4-{7-chloro-2-[(E)-2-(2-chloro-phenyl)-vinyl]-quinolin-4-yl}-N1,N1-diethyl-pentane-1,4-diamine]
maximal effect, luciferase activity ([1]; 18 nM ARTN + 20 μM XIB4035): 3.61±0.47 fold over control | maximal effect, luciferase activity ([1]; 18 nM GDNF + 20 μM XIB4035): 3.41±0.41 fold over control | minimal ARTN dose necessary to induce luciferase activity above control ([1]; ARTN + 20 μM XIB4035, 10 minutes, washout, overnight): 2.7 pM | minimal GDNF dose necessary to induce luciferase activity above control ([1]; GDNF + 20 μM XIB4035, 10 minutes, washout, overnight): 2.7 pM | effect in the TH-luciferase assay ([1]; 10 minute treatment, 1-15 μM, washout, overnight incubation): no effect | effect in the TH-luciferase assay ([1]; overnight treatment, 6.25-500 nM): no effect | effect on ligand-induced TH-luciferase activity ([1]; co-treatment with either GDNF or ARTN over a range of doses): significantly potentiates | NRG1-dependent activation of ErbB2/ErbB3 [2]: did not influence | RET phosphorylation at 60 min [3]: detected
